{"source": "patent US9757399B2", "about": "“Butyrylcholinesterase inhibitors” (priority 2006, dated 2017)", "key": {"[1]": {"test_system": "porcine umbilical stem cells", "assay_type": "in vitro ADME", "experimental": "In addition, uptake of di-n-butyl-2-chlorophenyl phosphate by porcine umbilical stem cells was measured after 24 and 48 hours of culture (Table 5)."}, "[2]": {"assay_type": "in vivo, male Long-Evans rats", "settings": "rat, intraperitoneal 0.2 mL of 10 mg/mL in DMSO, 30 minutes, brain tissue (1.5 g), GC/MS; one value per animal", "experimental": "An animal study using two groups (n=7/group) of male Long-Evans rats (200-225 g, Charles River, Portage, Mich.) was conducted to determine whether DB2ClPP crosses the blood brain barrier. DB2ClPP was dissolved in dimethyl sulfoxide (DMSO). Rats were injected intraperitoneally with either 0.2 mL DMSO (vehicle control) or 0.2 mL of a 10 mg/mL solution of DB2ClPP with DMSO as solvent. Thirty minutes after DB2ClPP treatment, animals were deeply anesthetized with isoflurane and then decapitated. Brains were removed quickly, rinsed in ice cold phosphate buffer saline (pH 7.4) and block dissected and flash frozen in liquid nitrogen and stored at −80° C. until assayed.\nThe tissue from two animals injected with DB2ClPP were processed as follows: i) brain tissue (1.5 g) was allowed to thaw on ice in a Dounce homogenizer; ii) 10 mL of methylene chloride was added and the tissue extracted with 20 strokes of the loose fitting pestle. The homogenate was clarified by centrifugation and the supernatant extracted three times with methylene chloride using a separatory funnel. The organic phase was collected, pooled, and dried over magnesium sulfate. The eluate was then concentrated down to a volume of approximately 200 μl under nitrogen and analyzed by GC/MS for the presence of the DB2ClPP. A solution of neat DB2ClPP served as control. The DB2ClPP was present in both samples. […]"}}, "note": "“And” between values parts separate entries of the source, which are not always exact repeats. Identical values can stand only once. Like-named read-outs stand apart in the source and are kept apart here.", "data": [{"compound": "CCCCOP(=O)(OCCCC)Oc1ccccc1Cl", "note": "[DB2ClPP, Di-n-butyl 2-chlorophenyl phosphate]", "values": [{"measurement": "fg DB2Cl-PP/cell (±SEM)", "setting": "[1]; 0 hours", "result": "2.55 ± 0.011", "unit": "fg/cell"}, {"measurement": "fg DB2Cl-PP/cell (±SEM)", "setting": "[1]; 24 hours", "result": "11.57 ± 1.02", "unit": "fg/cell"}, {"measurement": "fg DB2Cl-PP/cell (±SEM)", "setting": "[1]; 48 hours", "result": "13.62 ± 0.003", "unit": "fg/cell"}, {"measurement": "amount of DB2ClPP in brain sample", "setting": "[2]", "result": "220 ng and 125 ng"}]}]}
